From a melting point compilation (Tetko et al.; mined from patent text by program, amines drawn as free bases though some values may be those of a salt)

Compound | melting point
CCCCCc1nc2ccc(C(=O)O)cc2c(=O)[nH]1 | 310 to 312 °C
CCCc1c(OCCCCCC#N)ccc(C(=O)c2ccccc2O)c1O | 62 to 63 °C
Cn1cncc1C(O)(c1ccc(Cl)cc1)c1ccc2c(c1)c(-c1cccc(Cl)c1)cc1cnnn12 (configuration not stated) | 222 °C
Nc1cc(Cl)c(Br)cc1C(=O)O | 228 to 230 °C
O=C(O)C1CCc2c(oc3ccc(Cl)cc23)C1 (configuration not stated) | 194 to 198 °C
O=C(O)CNC(=O)C(CSC(=O)c1ccccc1)SC(=O)c1ccccc1 (configuration not stated) | 160 to 163 °C
O=C(Nc1ccccc1N1CCOCC1)c1cccc2c1C(=O)c1ccccc1-2 | 154 to 156 °C
CS(=O)(=O)c1ccc(-n2nc(C(F)(F)F)cc2-c2ccc(-c3cccs3)cc2)cc1F | 75 to 76 °C
CCCOc1nsc(NC(=O)NC)c1C(N)=O | 195 to 198 °C
CCOc1cc2c(C)c(CCOS(C)(=O)=O)c(=O)oc2cc1OC | 153 to 154 °C
COC(=O)NNC(=S)Cc1cccc(C(F)(F)F)c1 | 131 to 132 °C
NC(=O)Cc1c(N)cc(Br)cc1OCc1ccccc1 | 185 °C
N=C(NO)c1ccccc1-n1cnc2cnc3ccc(-c4ccccc4)cc3c21 | 249 to 251 °C
CC(C)c1ccc(C(=O)Cc2ccccc2C(F)(F)F)c(C(C)C)c1OS(N)(=O)=O | 144 to 149 °C
CCc1cc(C=C[N+](=O)[O-])c(OC)nc1C | 105 to 107 °C
COC(=O)CCCc1n[nH]c(=O)c2cc(OC)ccc12 | 175 to 177 °C
Cc1ccccc1CN1CCC(c2cc(-c3ccc(Cl)cc3)[nH]n2)CC1 | 142 to 143 °C
CC1CCCC2C1N2CC(O)Cn1ccnc1[N+](=O)[O-] (configuration not stated) | 124 °C
COc1ccc2c(c1OCc1ccccc1)CCCC2=O | 64 °C
N=C(Nc1cccc(NC(=O)/C=C/c2ccc(Cl)cc2)c1)c1ccccc1 | 109 to 110 °C
COc1cc2c(cc1C(F)(F)F)N(C(=O)Nc1cccc(-c3cnccc3C)c1)CC2 | 178 to 180 °C
O=C(CP(=O)(O)O)NC12CC3CC(CC(C3)C1)C2 | 190 to 194 °C
CC(C)=CCn1c(=O)c(C2=Nc3ccccc3S(=O)(=O)N2)c(O)c2ccccc21 | 249 to 251 °C
CN(C)C(=O)COc1cc(Cl)ccc1C(=O)NCCN1CCN(CCc2ccccc2)CC1 | 159 to 160 °C

Compound | melting point
Nc1cncc(C(O)c2ccccc2)c1 (configuration not stated) | 92 to 94 °C
O=C1CN(CC2CCN(c3ncc4ncnc(Nc5ccc(F)c(Cl)c5)c4n3)CC2)CCO1 | 202 to 204 °C
N#CCC(=O)c1cc(F)c(Cl)cc1Cl | 98 to 99 °C
COc1cc2c(c(OC(C)=O)c1)C1CCC3(C)C(OC(=O)C(F)(F)F)CCC3C1CC2 (configuration not stated) | 137 to 138 °C
c1cncc(-c2ccnc(Nc3cccc(-n4ccnc4)c3)n2)c1 | 95 to 120 °C
OCCOc1ccc(C(=S)c2ccc(-c3ccccc3)cc2)c(O)c1 | 77 to 79 °C
COC(=N)c1ccc(-c2ccc([N+](=O)[O-])cc2)o1 | 184 to 188 °C
Nc1ccc(C2Sc3ccccc3C=C2c2ccc3c(c2)NC(=O)CO3)cc1 (configuration not stated) | 186 to 189 °C
Cc1cc(C)c(C)c(COc2ccccc2-c2ccoc2C(=O)NNC(=O)c2ccc(O)c(C#N)c2)c1C | 215 to 217 °C
COCC#Cc1cc2c(O)c(C(=O)NCc3ccc(Cl)cc3)cnc2s1 | 215 to 218 °C
CC(C)CC12CCC3C4CCC(=O)C=C4CCC3C1CCC2O (configuration not stated) | 124 to 126 °C
C[C@H]1Oc2ccc(F)cc2NC(=O)[C@H]1N | 173 to 177 °C
CNC(=S)n1nc(Nc2ccccc2)nc1N | 196 to 198 °C
CC(=O)NC1CCC(NC(=O)Nc2ccc(C(F)(F)F)cc2)CC1 (configuration not stated) | > 400 °C
COC(=O)c1sc([N+](=O)[O-])cc1N=NN(C)C | 128 to 130 °C
CC1(C)N=C(NC(=O)c2ccco2)N=C(NC(=O)c2ccco2)N1OCc1cccc2ccccc12 | 173 to 177 °C
COc1ccc2c(c1)c1c3c(ccc1n2C)C(=O)N(CCN(C)C)C3=O | 137 to 138 °C
CCCCC12CCC3C4=C(CCC3C1CCC2=O)CC(OC)=CC4 (configuration not stated) | 124 to 128 °C
CCOC(=O)C(NC(C)=O)(C(=O)OCC)[C@@H]1CC(=O)C[C@H]1NC(=O)OC(C)(C)C (relative stereo) | 135 to 136 °C
COc1cc(-c2cc(C(F)(F)F)nn2-c2ccc(S(N)(=O)=O)cc2)ccc1-c1cocn1 | 143 to 145 °C
CCOC(=O)c1nc(O)sc1-c1ccncc1 | 204 to 206 °C
S=C1NCC2(CC2)CN1 | 220 to 222 °C
COc1cc(C(=O)NS(=O)(=O)c2ccccc2C)ccc1Cc1c(Cl)n(C)c2ccc(CC(C)NC(=O)N(C)C)cc12 (configuration not stated) | 120 to 130 °C
COc1nc(NC(=O)NS(=O)(=O)c2ccccc2OCC#N)nn1C | 205 to 207 °C

Compound | melting point
COc1cc(S(C)=O)c(C)cc1OCC(=O)NCC(O)COc1ccccc1C (configuration not stated) | 106 to 108 °C
Cc1[nH]c2ccc(F)cc2c1CCC(=O)N1CCN(c2ccccc2)CC1 | 170 to 172 °C
CC(C)OCCOc1ccc(-c2nc(C(=O)Nc3nccs3)c(-c3ccc(Cl)cc3)[nH]2)cc1 | 121 to 125 °C
CN(C1CN(C(=O)Nc2ccc(C(F)(F)F)cc2)N=C1c1ccc(Cl)cc1)S(C)(=O)=O (configuration not stated) | 105 to 112 °C
COC(=O)c1cc(N(C)C)c2cc(Cc3ccc(F)cc3)cnc2c1O | 62 to 63 °C
COc1ccc(COc2ccc(CSc3ccc(OCC(=O)O)c(C)c3)cc2)cc1 | 150 to 152 °C
COc1ccc(-c2ccc(=O)[nH]n2)cc1OC1CC2CCC1C2 (configuration not stated) | 188 to 189 °C
Cc1cccc(OC2CCOC2=O)c1[N+](=O)[O-] (configuration not stated) | 82 to 84 °C
COc1cccc2c1OC(CO)CN2C(=O)OC(C)(C)C (configuration not stated) | 65 to 68 °C
O=C(c1ccccc1)N1CCc2[nH]c3cccc(-c4ccccc4)c3c2CC1 | 223 to 226 °C
CCCCCCCCCCCCCCOc1cc(OCCCCCCCCCCCCCC)cc(C(=O)N(CC(=O)O)CC(=O)O)c1 | 88 to 90 °C
COC(=O)/C=C/c1ccc(OC)cc1N | 149 °C
COc1ccccc1-c1cccn2nc(Nc3ccc4c(c3)CCN(CCS(C)(=O)=O)CC4)nc12 | 91 to 94 °C
COc1cc2c3c(c(=O)n(C)c2cc1OC)CNCC3 | 178 to 179 °C
Cc1cc(C)c(CC(=O)N(C)CC(=O)O)c(C)c1 | 140 °C
CC(C)OCCCNC(=O)c1n[nH]cc1NC(=O)c1ccccn1 | 152 to 153 °C
COc1ccc(C(=O)Nc2cccc(C(C)(C)CNC(C)=O)c2)cc1OC | 132 to 134 °C
CC(NC(=O)c1ccc(N)cc1)C(=O)O (configuration not stated) | 198 to 199 °C
CC(=O)Nc1nc2c(Oc3cc(-c4ccc(C(F)(F)F)cc4OCc4ccccc4)ncn3)cccc2s1 | 201 to 203 °C
O=C(CNc1c(C(=O)O)[nH]c2cc(F)ccc12)c1ccccc1 | 142 to 143 °C
CC(C(=O)O)c1ccc(CC2CCCCC2O)c(Cl)c1 (configuration not stated) | 123 to 127 °C
CCOc1ccccc1O[C@@H]1CN(Cc2ccccc2)C[C@H]1O (relative stereo) | 88.5 to 90 °C
COC(=O)c1c(-c2ccccc2)nn2ccc3c(c12)C(CC#N)CC3 (configuration not stated) | 214 to 215 °C
O=C(COc1cccc2cccnc12)c1ccccc1 | 124 to 125 °C
